Entries after “also recorded” stand apart in the source; their conditions may differ.
Test system: normal breast-derived cells HMEK
Experiment: Cell survival assay (alamarBlue), normal cells
Assay type: cell-based, human
Details: 72 hr
Experimental: (§1) Normal cells and cancer-derived cells were plated at a density of 10^4 cells/well (100 μl) in a 96-well plate. On the next day, Olaparib, a NAD-mimetic, or 5F02, 4D11, 5A03, 5H03, 1C09, new non-NAD-like inhibitors, were added. Cells were grown for 72 hr. 20 μl/well of alamarBlue® reagent was added; fluorescence readings were taken.
(§2) The cytotoxic effects of treatment by classical inhibitor Olaparib and the new inhibitors was compared using breast cancer-derived cells BT474 and normal breast-derived cells HMEK.

For `O=C(c1cc(Cc2n[nH]c(=O)c3ccccc23)ccc1F)N1CCN(C(=O)C2CC2)CC1` [Olaparib], the “cytotoxicity to normal cells” value was “killed both normal and cancer cells”.

Test system: breast cancer-derived cells BT474
Experiment: Cell survival assay (alamarBlue), cancer-derived cells
Assay type: cell-based, human
Details: 72 hr
Experimental: as §1, §2

`O=C(c1cc(Cc2n[nH]c(=O)c3ccccc23)ccc1F)N1CCN(C(=O)C2CC2)CC1` [Olaparib] was tested, and the “cytotoxic effect on cancer-derived cells” value was “eliminate cancer-derived cells at similar concentrations; also recorded: killed both normal and cancer cells”.

Biological target: PARP-1 (Homo sapiens, UniProt P09874)
Sequence (P09874 whole entry): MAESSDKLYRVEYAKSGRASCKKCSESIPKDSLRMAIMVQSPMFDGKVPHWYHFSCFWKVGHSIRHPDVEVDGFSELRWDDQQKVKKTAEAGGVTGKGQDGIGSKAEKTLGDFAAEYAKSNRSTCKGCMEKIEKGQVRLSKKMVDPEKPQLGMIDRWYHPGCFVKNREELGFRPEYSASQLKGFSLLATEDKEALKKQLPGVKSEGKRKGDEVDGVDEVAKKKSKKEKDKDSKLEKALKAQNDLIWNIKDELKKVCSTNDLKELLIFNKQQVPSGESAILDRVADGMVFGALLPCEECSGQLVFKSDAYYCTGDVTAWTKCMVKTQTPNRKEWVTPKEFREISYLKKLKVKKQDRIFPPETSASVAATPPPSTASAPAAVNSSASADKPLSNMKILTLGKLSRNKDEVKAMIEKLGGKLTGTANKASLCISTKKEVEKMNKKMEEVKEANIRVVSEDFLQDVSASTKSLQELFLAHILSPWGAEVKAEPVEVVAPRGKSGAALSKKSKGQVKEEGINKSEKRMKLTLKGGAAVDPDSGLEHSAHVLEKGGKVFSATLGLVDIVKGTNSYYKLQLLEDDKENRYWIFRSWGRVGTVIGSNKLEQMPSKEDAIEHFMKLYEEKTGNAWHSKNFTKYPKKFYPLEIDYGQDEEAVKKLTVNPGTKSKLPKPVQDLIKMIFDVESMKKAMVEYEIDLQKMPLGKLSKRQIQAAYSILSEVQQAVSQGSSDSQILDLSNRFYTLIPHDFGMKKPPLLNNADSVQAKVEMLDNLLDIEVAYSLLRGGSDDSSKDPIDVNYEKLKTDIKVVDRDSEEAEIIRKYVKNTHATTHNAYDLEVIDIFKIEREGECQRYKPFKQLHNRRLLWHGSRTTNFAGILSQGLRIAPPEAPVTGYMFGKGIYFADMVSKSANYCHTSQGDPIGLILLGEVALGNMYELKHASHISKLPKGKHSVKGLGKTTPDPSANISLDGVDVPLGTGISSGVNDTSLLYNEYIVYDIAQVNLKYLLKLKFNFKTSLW
Experiment: PARP-1 activation screening assay, 384-well ELISA plate coated with histone H4
Details: pilot screen of ICCB Known Bioactives library; pADPr ELISA signal (absorbance at 650 or 450 nm as indicator of PARP-1 activity)
Description: The screening platform included a PARP1 activation assay in plates coated with histone H4. PARP1 reactions were set up in each well of the plate in the presence of a single small molecule test compound or a positive or negative control compound. The product of the reaction between PARP1 and H4, poly-ADP-ribose, was then quantified, with absorbance at 650 nm or 450 nm used as an indicator of PARP1 activity (FIG. 2A).
A PARP-1 activation screening assay was designed using a 384-well ELISA plate coated with histone H4 protein-activator. PARP-1 reactions were set up in each well in presence of single a small molecule compound or a positive and a negative control. […] The product of these reactions, poly-(ADP)-ribose, was quantified. Absorbance at 650 or 450 nm was used as an indicator of PARP-1 activity (FIG. 2A). As the test library for this screening assay, the ICCB Known Bioactives library of 480 compounds was used, which includes all popular PARP-1 inhibitors.

First: CCOC(=O)CN1C(=O)CC(C[C@@H](O)[C@@H]2C[C@@H](C)C[C@H](C)C2=O)CC1=O [Cycloheximide-N-ethylethanoate]
Second: C=C1[C@@H](C)[C@H]2[C@H](Cc3ccccc3)NC(=O)[C@]23OC(=O)/C=C/[C@H](O)CCC[C@@H](C)C/C=C/[C@H]3[C@@H]1O [Cytochalasin B]
The Value of the first is lower: 1.89 for the first, 2.03 for the second.

Going from `NCCNS(=O)(=O)c1cccc2cnccc12` [Formula H9] to `[Cl-].c1ccc2c(c1)[I+]c1ccccc1-2` [Diphenyleneiodonium Cl], the Value rises from 0.05 to 0.20.

First: CN(C)C(=O)C(CCN1CCC(O)(c2ccc(Cl)cc2)CC1)(c1ccccc1)c1ccccc1 [Loperamide]
Second: O=c1[nH]c2ccccc2c2ccccc12 [6(5H)-Phenanthridinone]
The Value of the first is higher: 2.34 for the first, 0.05 for the second.

First: CN(C)C[C@H](O)Cn1c2ccc(Br)cc2c2cc(Br)ccc21 (racemic) [Wiskostatin]
Second: COc1cccc(-c2cc(=O)c3ccccc3o2)c1N [PD 98059]
The Value of the first is higher: 1.90 for the first, 0.69 for the second.

Going from `Br.NC1CCc2cc(O)c(O)cc2C1` (stereo not drawn) [6,7-ADTN HBr] to `N#C/C(=C\c1ccc(O)c(O)c1)C(N)=S` [AG213 (Tyrphostin 47)], the Value rises from 0.50 to 1.28.

First: CNc1ccc2oc(C[C@H]3O[C@@]4(CC[C@H]3C)O[C@H]([C@H](C)C(=O)c3ccc[nH]3)[C@H](C)C[C@H]4C)nc2c1C(=O)O [Formula A-23187, A-23187]
Second: CC1(C)Oc2ccc(C#N)cc2[C@@H](OC2=CC(=O)CC2)[C@@H]1O [PCO-400]
The Value of the first is lower: 1.22 for the first, 2.01 for the second.

First: C=C1O[C@@](CO)(n2cnc3c(N)ncnc32)[C@H](O)[C@@H]1O [Decoyinine]
Second: O=c1c(O)c(-c2ccc(O)c(O)c2)oc2cc(O)cc(O)c12 [Quercetin]
The Value of the first is higher: 2.00 for the first, 0.18 for the second.

First: CC[N+](C)(CC)CCC[n+]1c(-c2ccccc2)c2cc(N)ccc2c2ccc(N)cc21.[I-].[I-] [Propidium iodide]
Second: CC(C)Cn1c(=O)n(C)c(=O)c2[nH]cnc21 [IBMX]
The Value of the first is lower: 0.18 for the first, 0.94 for the second.
